{"source": "patent US10822342B2", "about": "“Pyrazolopyrimidine derivatives as NIK inhibitors” (Janssen Pharmaceutica NV, priority 2014, dated 2020)", "key": {"[1]": {"biological_target": "Recombinant Human NF-kappaB-Inducing Kinase (NIK/MAP3K14) (Homo sapiens (Human), UniProt Q99558)", "sequence (Q99558 whole entry)": "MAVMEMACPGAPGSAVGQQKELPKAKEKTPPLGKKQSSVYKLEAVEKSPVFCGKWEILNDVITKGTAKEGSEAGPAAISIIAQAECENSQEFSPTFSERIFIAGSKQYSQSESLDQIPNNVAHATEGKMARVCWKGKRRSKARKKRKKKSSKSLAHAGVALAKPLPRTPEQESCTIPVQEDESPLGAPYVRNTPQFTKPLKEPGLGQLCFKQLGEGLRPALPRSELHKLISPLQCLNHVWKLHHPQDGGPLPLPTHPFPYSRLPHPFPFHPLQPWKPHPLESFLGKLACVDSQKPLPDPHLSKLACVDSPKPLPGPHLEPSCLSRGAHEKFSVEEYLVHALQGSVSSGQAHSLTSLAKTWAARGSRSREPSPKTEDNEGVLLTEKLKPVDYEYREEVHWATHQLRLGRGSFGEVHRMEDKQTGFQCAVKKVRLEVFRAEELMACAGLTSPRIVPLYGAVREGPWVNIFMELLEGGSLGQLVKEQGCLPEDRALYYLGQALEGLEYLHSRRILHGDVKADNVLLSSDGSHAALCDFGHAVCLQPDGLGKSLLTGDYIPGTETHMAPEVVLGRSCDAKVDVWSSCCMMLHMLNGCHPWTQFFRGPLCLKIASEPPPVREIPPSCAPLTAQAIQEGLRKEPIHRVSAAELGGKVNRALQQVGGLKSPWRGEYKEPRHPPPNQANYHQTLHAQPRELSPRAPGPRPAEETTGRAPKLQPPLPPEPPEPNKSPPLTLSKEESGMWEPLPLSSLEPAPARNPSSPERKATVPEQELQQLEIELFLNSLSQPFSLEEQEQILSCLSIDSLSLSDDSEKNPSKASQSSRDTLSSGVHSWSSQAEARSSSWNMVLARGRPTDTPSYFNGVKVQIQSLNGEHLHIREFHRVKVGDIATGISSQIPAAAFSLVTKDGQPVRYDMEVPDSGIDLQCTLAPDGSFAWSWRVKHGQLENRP", "experiment": "Inhibition of auto-phosphorylation of recombinant human NIK/MAP3K14 activity (AlphaScreen)", "format": "biochemical", "conditions": "GST-tagged NIK/MAP3K14 0.2 nM, 25 microM ATP, 1 h at 25° C.; averaged over all measurements on all batches; read-out: Alpha-Screen IC50", "experimental": "Inhibition of Auto-Phosphorylation of Recombinant Human NF-kappaB-Inducing Kinase (NIK/MAP3K14) Activity (AlphaScreen®)\nNIK/MAP3K14 auto-phosphorylation activity was measured using the AlphaScreen® (αscreen) format (Perkin Elmer). All compounds tested were dissolved in dimethyl sulfoxide (DMSO) and further dilutions were made in assay buffer. Final DMSO concentration was 1% (v/v) in assays. Assay buffer was 50 mM Tris pH 7.5 containing 1 mM EGTA (ethylene glycol tetraacetic acid), 1 mM DTT (dithiothreitol), 0.1 mM Na3VO4, 5 mM MgCl2, 0.01% Tween® 20. Assays were carried out in 384 well Alphaplates (Perkin Elmer). Incubations consisted of compound, 25 microM Adenosine-5′-triphosphate (ATP), and 0.2 nM NIK/MAP3K14. Incubations were initiated by addition of GST-tagged NIK/MAP3K14 enzyme, carried out for 1 h at 25° C. and terminated by addition of stop buffer containing anti-phospho-IKK Ser176/180 antibody. Protein A Acceptor and Glutathione-Donor beads were added before reading using an EnVision® Multilabel Plate Reader (Perkin Elmer). Signal obtained in the wells containing blank samples was subtracted from all other wells and IC50's were determined by fitting a sigmoidal curve to % inhibition of control versus Log10 compound concentration."}, "JJN-3 cells": {"tested_on": "JJN-3 cells", "experiment": "Antiproliferative activity on JJN-3 cells (CellTiter-Glo)", "format": "cell-based", "conditions": "Homo sapiens, 72 hr treatment, averaged values", "experimental": "(§1) Determination of Antiproliferative Activity on LP-1, L-363 and JJN-3 Cells\n(§2) All compounds tested were dissolved in DMSO and further dilutions were made in culture medium. Final DMSO concentration was 0.3% (v/v) in cell proliferation assays. Viability was assessed using CellTiter-Glo cell viability assay kit (Promega). The human LP-1, L-363 and JJN-3 cells (DSMZ) were cultured in RPMI 1640 medium supplemented with 2 mM L-glutamine, and 10% fetal calf serum (PAA). Cells were routinely kept as suspension cells at 37° C. in a humidified 5% CO2 atmosphere. Cells were passaged at a seeding density of 0.2×10^6/ml twice a week. Cells were seeded in black tissue culture treated 96-well plates (Perkin Elmer). Densities used for plating ranged from 2,000 to 6,000 cells per well in a total volume of 75 μl medium. After twenty four hours, drugs and/or solvents were added (25 μl) to a final volume of 100 μl. Following 72 hr of treatment plates were removed from the incubator and allowed to equilibrate to room temperature for approx 10 min. 100 μl CellTiter-Glo reagent was added to each well that was then covered (Perkin Elmer Topseal) and shaken on plate shaker for 10 min. Luminescence was measured on a HTS Topcount (Perkin Elmer). Within an experiment, the results for each treatment were the mean of 2 replicate wells. For initial screening purposes, compounds were tested using a 9 point dilution curve (serial 1:3 dilutions). For each experiment, controls (containing no drug) and a blank incubation (containing cells read at the time of compound addition) were run in parallel. The blank value was subtracted from all control and sample values. For each sample, the mean value for cell growth (in relative light units) was expressed as a percentage of the mean value for cell growth of the control."}, "L-363 cells": {"tested_on": "L-363 cells", "experiment": "Antiproliferative activity on L-363 cells (CellTiter-Glo)", "format": "cell-based", "conditions": "Homo sapiens, 72 hr treatment, averaged values", "experimental": "as §1, §2"}, "LP-1 cells": {"tested_on": "LP-1 cells", "experiment": "Antiproliferative activity on LP-1 cells (CellTiter-Glo)", "format": "cell-based", "conditions": "Homo sapiens, 72 hr treatment, averaged values", "experimental": "as §1, §2"}, "[2]": {"tested_on": "P-IKKα levels in L363 cells", "experiment": "Effect of compounds on P-IKKα levels in L363 cells", "format": "cell-based", "conditions": "Homo sapiens, L-363, BAFF stimulated, 2 hr treatment, Mesoscale sandwich immuno-assay, averaged values, read-out: IKKα Cellular IC50", "experimental": "Effect of Compounds on P-IKKα Levels in L363 Cells\nAll compounds tested were dissolved in DMSO and further dilutions were made in culture medium. Final DMSO concentration was 1% (v/v) in cell assays. The human L363 cells (ATCC) were cultured in RPMI 1640 medium supplemented with GlutaMax and 10% fetal calf serum (PAA). Cells were routinely maintained at densities of 0.2×10^6 cells per ml—1×10^6 cells per ml at 37° C. in a humidified 5% CO2 atmosphere. Cells were passaged twice a week splitting back to obtain the low density. Cells were seeded in 96 well plates (Nunc 167008) at 2×10^6 per ml media in a volume of 75 μl per well plus 25 μl 1 μg/ml recombinant human B-cell activating factor (BAFF/BLyS/TNFSF13B). Seeded cells were incubated at 37° C. in a humidified 5% CO2 atmosphere for 24 hr. Drugs and/or solvents were added (20 μl) to a final volume of 120 μl. Following 2 hr treatment plates were removed from the incubator and cell lysis was achieved by the addition of 30 μl 5× lysis buffer followed by shaking on a plate shaker at 4° C. for 10 min. At the end of this incubation lysed cells were centrifuged at 800×g for 20 min at 4° C. and the lysate was assessed for P-IKKα levels by sandwich immuno-assay carried out in anti-rabbit antibody coated Mesoscale plates. Within an experiment, the results for each treatment were the mean of 2 replicate wells. […]"}}, "data": [{"compound": "[2H]C([2H])([2H])C(O)(C#Cc1cc2c(-c3nc(N)nc4cn(CC)nc34)cn(C3CCN(CC)C3)c2cc1F)C([2H])([2H])[2H]", "note": "(stereo not shown) [Compound 6]", "values": [{"measurement": "IC50", "setting": "[1]", "value": 37, "unit": "nM"}, {"measurement": "EC50", "setting": "JJN-3 cells", "value": 40, "unit": "nM"}, {"measurement": "EC50", "setting": "L-363 cells", "value": 38, "unit": "nM"}, {"measurement": "EC50", "setting": "LP-1 cells", "value": 70, "unit": "nM"}]}, {"compound": "COCCCn1cc(-c2nc(N)nc3cn(C4CC4)nc23)c2cc(C#CC(C)(O)C3CC3)ncc21", "note": "(stereo not shown) [Compound 8]", "values": [{"measurement": "IC50", "setting": "[1]", "value": 38, "unit": "nM"}, {"measurement": "EC50", "setting": "JJN-3 cells", "value": 78, "unit": "nM"}, {"measurement": "EC50", "setting": "L-363 cells", "value": 76, "unit": "nM"}, {"measurement": "EC50", "setting": "LP-1 cells", "value": 402, "unit": "nM"}]}, {"compound": "[2H]C([2H])([2H])C(O)(C#Cc1cc2c(-c3nc(N)nc4cn(CC)nc34)cn(C3CN(C4CC4)C3)c2cn1)C([2H])([2H])[2H]", "note": "[Compound 12]", "values": [{"measurement": "IC50", "setting": "[1]", "value": 84, "unit": "nM"}, {"measurement": "EC50", "setting": "JJN-3 cells", "value": 301, "unit": "nM"}, {"measurement": "EC50", "setting": "L-363 cells", "value": 140, "unit": "nM"}, {"measurement": "EC50", "setting": "LP-1 cells", "value": 877, "unit": "nM"}]}, {"compound": "CCn1cc2nc(N)nc(-c3cn(C4CN(C5CC5)C4)c4cnc(C#CC(C)(O)C5CC5)cc34)c2n1", "note": "(stereo not shown) [Compound 10]", "values": [{"measurement": "IC50", "setting": "[1]", "value": 186, "unit": "nM"}, {"measurement": "EC50", "setting": "JJN-3 cells", "value": 406, "unit": "nM"}, {"measurement": "EC50", "setting": "L-363 cells", "value": 241, "unit": "nM"}, {"measurement": "EC50", "setting": "LP-1 cells", "value": 788, "unit": "nM"}]}, {"compound": "[2H]C([2H])([2H])n1cc2nc(N)nc(-c3cn(C4CCN(CC)C4)c4cc(F)c(C#CC(O)(C([2H])([2H])[2H])C([2H])([2H])[2H])cc34)c2n1", "note": "(stereo not shown) [Compound 5]", "values": [{"measurement": "IC50", "setting": "[1]", "value": 112, "unit": "nM"}, {"measurement": "EC50", "setting": "JJN-3 cells", "value": 46, "unit": "nM"}, {"measurement": "EC50", "setting": "L-363 cells", "value": 52, "unit": "nM"}, {"measurement": "EC50", "setting": "LP-1 cells", "value": 128, "unit": "nM"}]}, {"compound": "[2H]C([2H])([2H])C(O)(C#Cc1cc2c(-c3nc(N)nc4cn(CC)nc34)cn(C3CN(CC4CC4)C3)c2cc1F)C([2H])([2H])[2H]", "note": "[Compound 7]", "values": [{"measurement": "IC50", "setting": "[1]", "value": 60, "unit": "nM"}, {"measurement": "EC50", "setting": "JJN-3 cells", "value": 95, "unit": "nM"}, {"measurement": "EC50", "setting": "L-363 cells", "value": 53, "unit": "nM"}, {"measurement": "EC50", "setting": "LP-1 cells", "value": 202, "unit": "nM"}]}, {"compound": "COCCCn1cc(-c2nc(N)nc3cn(C)nc23)c2cc(C#CC(C)(C)O)ncc21", "note": "[Compound 1]", "values": [{"measurement": "IC50", "setting": "[1]", "value": 46, "unit": "nM"}, {"measurement": "EC50", "setting": "JJN-3 cells", "value": 538, "unit": "nM"}, {"measurement": "EC50", "setting": "L-363 cells", "value": 655, "unit": "nM"}, {"measurement": "EC50", "setting": "LP-1 cells", "value": 6780, "unit": "nM"}]}, {"compound": "[2H]C([2H])([2H])C(O)(C#Cc1cc2c(-c3nc(N)nc4cn(CC)nc34)cn(CCCOC)c2cc1F)C([2H])([2H])[2H]", "note": "[Compound 4]", "values": [{"measurement": "IC50", "setting": "[1]", "value": 65, "unit": "nM"}, {"measurement": "EC50", "setting": "JJN-3 cells", "value": 102, "unit": "nM"}, {"measurement": "EC50", "setting": "L-363 cells", "value": 69, "unit": "nM"}, {"measurement": "EC50", "setting": "LP-1 cells", "value": 244, "unit": "nM"}]}, {"compound": "COCCCn1cc(-c2nc(N)nc3cn(C)nc23)c2cc(C#CC(C)(O)C3CC3)ncc21", "note": "(stereo not shown) [Compound 2]", "values": [{"measurement": "IC50", "setting": "[1]", "value": 23, "unit": "nM"}, {"measurement": "IC50", "setting": "[2]", "value": 103, "unit": "nM"}, {"measurement": "EC50", "setting": "JJN-3 cells", "value": 358, "unit": "nM"}, {"measurement": "EC50", "setting": "L-363 cells", "value": 386, "unit": "nM"}, {"measurement": "EC50", "setting": "LP-1 cells", "value": 2960, "unit": "nM"}]}, {"compound": "CCn1cc2nc(N)nc(-c3cn(CCCOC)c4cc(F)c(C#CC(C)(O)C5CC5)cc34)c2n1", "note": "(stereo not shown) [Compound 3]", "values": [{"measurement": "IC50", "setting": "[1]", "value": 992, "unit": "nM"}, {"measurement": "EC50", "setting": "JJN-3 cells", "value": 182, "unit": "nM"}, {"measurement": "EC50", "setting": "L-363 cells", "value": 246, "unit": "nM"}, {"measurement": "EC50", "setting": "LP-1 cells", "value": 845, "unit": "nM"}]}, {"compound": "[2H]C([2H])([2H])C(O)(C#Cc1cc2c(-c3nc(N)nc4cn(CC)nc34)cn(C3CN(CC4CC4)C3)c2cn1)C([2H])([2H])[2H]", "note": "[Compound 11]", "values": [{"measurement": "IC50", "setting": "[1]", "value": 143, "unit": "nM"}, {"measurement": "EC50", "setting": "JJN-3 cells", "value": 158, "unit": "nM"}, {"measurement": "EC50", "setting": "L-363 cells", "value": 62, "unit": "nM"}, {"measurement": "EC50", "setting": "LP-1 cells", "value": 1180, "unit": "nM"}]}, {"compound": "CCn1cc2nc(N)nc(-c3cn(CCCOC)c4cnc(C#CC(C)(O)C5CC5)cc34)c2n1", "note": "(stereo not shown) [Compound 9]", "values": [{"measurement": "IC50", "setting": "[1]", "value": 52, "unit": "nM"}, {"measurement": "EC50", "setting": "JJN-3 cells", "value": 217, "unit": "nM"}, {"measurement": "EC50", "setting": "L-363 cells", "value": 162, "unit": "nM"}, {"measurement": "EC50", "setting": "LP-1 cells", "value": 629, "unit": "nM"}]}]}
